# Results taken from paper PMC9101838, “Novel CFTR Activator Cact-3 Ameliorates Ocular Surface Dysfunctions in Scopolamine-Induced Dry Eye Mice” (International Journal of Molecular Sciences, 2022).
# Biological target: T1, Cystic fibrosis transmembrane conductance regulator (CFTR) (Homo sapiens, UniProt P13569)
# T1 construct: human WT-CFTR
# Experiment: apical membrane current in FRT cells expressing human WT-CFTR; whole-cell patch clamp in CHO-K1 cells; no change in cAMP
# Assay type: cell-based
# T1 sequence (P13569 whole entry): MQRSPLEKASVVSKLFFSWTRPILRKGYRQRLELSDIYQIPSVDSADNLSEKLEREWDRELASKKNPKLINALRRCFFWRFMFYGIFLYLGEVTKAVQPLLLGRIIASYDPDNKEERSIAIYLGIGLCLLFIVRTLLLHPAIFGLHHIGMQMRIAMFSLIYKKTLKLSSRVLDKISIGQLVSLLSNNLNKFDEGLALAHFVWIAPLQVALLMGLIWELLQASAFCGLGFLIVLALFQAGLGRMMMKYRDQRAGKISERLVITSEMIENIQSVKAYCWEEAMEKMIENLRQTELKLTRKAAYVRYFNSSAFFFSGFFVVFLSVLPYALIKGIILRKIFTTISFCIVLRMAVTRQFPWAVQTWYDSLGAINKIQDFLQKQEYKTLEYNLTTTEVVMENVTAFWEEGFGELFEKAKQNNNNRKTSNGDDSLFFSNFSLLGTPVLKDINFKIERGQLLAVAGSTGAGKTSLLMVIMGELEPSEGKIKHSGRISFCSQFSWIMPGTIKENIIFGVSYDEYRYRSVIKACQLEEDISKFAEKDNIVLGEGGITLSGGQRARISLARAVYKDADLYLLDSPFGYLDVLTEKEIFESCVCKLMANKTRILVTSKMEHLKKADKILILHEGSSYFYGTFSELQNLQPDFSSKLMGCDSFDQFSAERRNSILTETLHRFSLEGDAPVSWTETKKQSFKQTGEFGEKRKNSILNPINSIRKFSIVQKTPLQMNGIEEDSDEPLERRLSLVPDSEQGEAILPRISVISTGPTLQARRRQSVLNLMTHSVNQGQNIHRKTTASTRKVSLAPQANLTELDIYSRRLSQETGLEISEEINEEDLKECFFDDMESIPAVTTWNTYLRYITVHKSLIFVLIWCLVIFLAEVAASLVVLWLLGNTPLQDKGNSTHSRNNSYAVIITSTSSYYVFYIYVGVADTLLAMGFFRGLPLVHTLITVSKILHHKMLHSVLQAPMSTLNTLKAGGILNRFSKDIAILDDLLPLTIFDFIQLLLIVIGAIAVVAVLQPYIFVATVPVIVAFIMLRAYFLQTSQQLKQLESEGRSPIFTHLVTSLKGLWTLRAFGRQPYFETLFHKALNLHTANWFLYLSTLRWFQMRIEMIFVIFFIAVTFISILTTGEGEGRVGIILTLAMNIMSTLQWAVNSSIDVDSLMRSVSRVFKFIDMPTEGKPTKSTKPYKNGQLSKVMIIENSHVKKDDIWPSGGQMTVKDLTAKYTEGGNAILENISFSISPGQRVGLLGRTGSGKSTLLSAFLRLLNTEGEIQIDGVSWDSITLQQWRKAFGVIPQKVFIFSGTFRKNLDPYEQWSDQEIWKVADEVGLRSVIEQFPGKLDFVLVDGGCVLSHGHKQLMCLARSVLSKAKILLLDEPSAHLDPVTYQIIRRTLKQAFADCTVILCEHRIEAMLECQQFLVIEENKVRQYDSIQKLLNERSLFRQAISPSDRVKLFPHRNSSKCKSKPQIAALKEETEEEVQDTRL
compound,measurement,value
"CCOc1ccc(NC(=O)c2cc3nccc(-c4ccc(OC)c(OC)c4)n3n2)cc1 [Cact-3, 7-(3,4-dimethoxyphenyl)-N-(4-ethoxyphenyl)pyrazolo [1,5-α]pyrimidine-2-carboxamide]",EC50,255 nM
